Experiment [1] addresses T1, Phospholipase A2, membrane associated (Homo sapiens, UniProt P14555).
T1 sequence (P14555 whole entry): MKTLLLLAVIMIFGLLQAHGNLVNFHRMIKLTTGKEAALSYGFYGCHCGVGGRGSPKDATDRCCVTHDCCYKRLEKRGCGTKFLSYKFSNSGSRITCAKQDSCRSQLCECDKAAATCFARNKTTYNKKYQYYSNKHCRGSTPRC
Description: Inhibition of Human Nonpancreatic Secretory Phospholipase A2 through Chromogenic assay. It counts as functional.

The target in experiment [2] is T2, Phospholipase A2, membrane associated (Homo sapiens) (UniProt P14555).
T2 sequence (whole entry): T1 sequence (P14555 whole entry)
Kind of experiment: Inhibition of PLA2 induced contraction of GP lung tissue (Guinea pig) (n=4). It counts as functional, tissue-based. To be noted: Cavia porcellus, target entry is the homologue from another species.

The species named for another experiment is Cavia porcellus. Description: Inhibition of AA (arachidonic acid) - induced contraction of GP lung tissue (n=4). It counts as functional.
For experiment [3], the target named is T2, Phospholipase A2, membrane associated (Homo sapiens). Kind of experiment: Inhibition of Human Nonpancreatic Secretory PLA2 through Chromogenic assay at 47ug/mL. It counts as functional.
Experiment [4] has the same target. Description: Mole fraction as PLA2 IC50 concentration divided by total lipid concentration (1230 uM). Type of experiment: functional.

Structures are written as SMILES. Where only a bound is given, the exact number is not on record here.

The values that follow come from ChEMBL document CHEMBL1129457, “Indole inhibitors of human nonpancreatic secretory phospholipase A2. 1. Indole-3-acetamides” (J Med Chem, 1996).

For orientation: IC50 means the concentration that inhibits the measured activity by half. Lower therefore signals higher potency. The inhibition is the relative decrease from the control value, in per cent. Read a high inhibition as strong suppression.

With `COc1ccc2c(c1)c(CC(=N)N)c(C)n2Cc1ccccc1`, the IC50 in experiment [1] came out at 64.7 µM. Same read-out and setting: to `CCc1c(C(O)C(N)=O)c2c(OC)cccc2n1Cc1ccccc1` (stereo unspecified) belongs 53 µM; to `CNC(=O)Cc1c(C)n(Cc2ccccc2)c2ccc(OC)cc12`, 142 µM; to `Cc1c(CC(=O)NN)c2ccccc2n1-c1ccccc1`, 38.2 µM. Consider `CCc1c(CC(=O)NN)c2cc(OC)ccc2n1Cc1ccccc1`, for which, in experiment [2], the Kb came out at 2.04 µM. In the experiment listed under Cavia porcellus, the ED50 is more than 30 µM. Compound `CCc1c(CC(N)=O)c2c(OC)cccc2n1Cc1ccccc1` had a half-maximal inhibitory concentration (IC50) in experiment [1] of 1.18 µM.

In turn, `COc1ccc2c(c1)c(CC(=O)NN)c(SC)n2Cc1ccccc1` returned an IC50 in experiment [1] of 0.62 µM. In experiment [2], `COc1ccc2c(c1)c(CC(=O)NN)c(Br)n2Cc1ccccc1` came in with a Kb of 0.76 µM. In the experiment listed under Cavia porcellus, this compound displayed an ED50 of 7.32 µM. As to `COc1ccc2c(c1)c(CC(=O)NN)cn2Cc1ccccc1`, the Kb in experiment [2] stood at 5.64 µM. Further, the ED50 in the experiment listed under Cavia porcellus was more than 10 µM. The compound further showed an IC50 in experiment [1] of 4.9 µM. `COc1ccc2c(c1)c(Cc1nnn[nH]1)c(C)n2Cc1ccccc1` displayed an IC50 in experiment [1] of 84.7 µM. This counts as double-digit micromolar. The compound `CCCCCCC(C(=O)NN)c1c(C)n(Cc2ccccc2)c2ccc(OC)cc12` (stereo unspecified) registered an IC50 in experiment [1] of 101 µM. This IC50 and that of the compound before are within 1.5-fold of each other. As for `COc1ccc2c(c1)c(CC(=O)NN)c(C)n2Cc1cccc(OCc2ccccc2)c1`, the Kb in experiment [2] is 3.86 µM. The compound further had an ED50 in the experiment listed under Cavia porcellus of more than 30 µM.

In experiment [2], `COc1ccc2c(c1)c(CC(=O)NN)c(C)n2Cc1ccccc1-c1ccccc1` yielded a Kb of more than 10 µM. This compound also displayed an ED50 in the experiment listed under Cavia porcellus of more than 10 µM. `COc1ccc2c(C(O)C(N)=O)c(C)n(Cc3ccccc3)c2c1` (stereo unspecified) registered an IC50 in experiment [1] of 121 µM. Compound `COc1ccc2c(c1)c(CCC(N)=O)c(C)n2Cc1ccccc1` had an IC50 in experiment [1] of 28.1 µM. Still for that read-out and setting: to `Cc1c(CC(N)=O)c2cc([N+](=O)[O-])ccc2n1Cc1ccccc1` belongs 1.51 µM. The compound `COc1ccc2c(c1)c(CC(N)=O)c(C)n2CC1CCCCC1` returned a Kb in experiment [2] of 22.5 µM. The same compound returned an ED50 in the experiment listed under Cavia porcellus of 25.65 µM. In turn, `CCc1c(C(=O)C(N)=O)c2c(OC)cccc2n1Cc1ccccc1` yielded an IC50 in experiment [1] of 0.55 µM. In experiment [2], `Cc1c(CC(=O)NN)c2cc(C(=O)O)ccc2n1Cc1cccc(Cl)c1` returned a Kb of 1.39 µM. The compound also displayed an ED50 in the experiment listed under Cavia porcellus of more than 30 µM. Compound `COc1ccc2c(c1)c(CC(=O)NN)c(C1CC1)n2Cc1ccccc1` had a half-maximal inhibitory concentration (IC50) in experiment [1] of 0.39 µM. As to `CCCCCCCCCCn1c(C)c(CC(N)=O)c2cc(OC)ccc21`, in experiment [1], the half-inhibitory concentration (IC50) amounted to 9.47 µM.

For the compound `COc1ccc2c(c1)c(C(=O)C(N)=O)c(C)n2Cc1ccccc1`, in experiment [1], it took 1.23 µM to reach half-maximal inhibition (IC50). The compound `COc1ccc2c(c1)c(CC(=O)NN)c(C)n2C(c1ccccc1)c1ccccc1` displayed a half-inhibitory concentration (IC50) in experiment [1] of 40.2 µM. The same measure, in the same setting: to `COc1ccc2c(c1)c(CC(=O)O)c(C)n2Cc1ccccc1` belongs 13.6 µM.

`CCc1c(CC(=O)NN)c2cc(OC)ccc2n1Cc1ccccc1-c1ccccc1` had a Kb in experiment [2] of 30.1 µM. The same compound showed an ED50 in the experiment listed under Cavia porcellus of more than 30 µM. Also, the IC50 in experiment [1] was 2.35 µM.

In the case of `COc1ccc2c(c1)c(CC(N)=O)c(C)n2CCCc1ccccc1`, 11.1 µM corresponded to half-maximal inhibition in experiment [1] (IC50).

The compound `Cc1c(CC(N)=O)c2cc(N)ccc2n1Cc1ccccc1` returned a Kb in experiment [2] of 1.98 µM. For the same compound, the ED50 in the experiment filed under Cavia porcellus was found to be 14.5 µM.

Regarding `COc1ccc2c(c1)c(CC(=O)NN)c(C)n2Cc1cccc(Cl)c1`, the Kb in experiment [2] was found to be 1.13 µM. Moreover, in the experiment listed under Cavia porcellus, the ED50 is more than 30 µM. The same compound displayed an IC50 in experiment [1] of 1.36 µM. For the compound `COc1cccc(Cn2c(C)c(CC(=O)NN)c3cc(OC)ccc32)c1`, the IC50 in experiment [1] is 2.12 µM.

In the case of `COC(=O)Cc1c(C)n(Cc2ccccc2)c2ccc(OC)cc12`, in experiment [1], the half-maximal inhibitory concentration (IC50) was found to be 116 µM. On the same count and under the same terms, to `COc1ccc2c(c1)c(CC(=N)S)c(C)n2Cc1ccccc1` belongs 74.1 µM. Same read-out and setting: to `COc1ccc2c(c1)c(CC(N)=O)c(C)n2C(=O)c1ccccc1` belongs 7.21 µM. For `COc1ccc2c(c1)c(CC(=O)NN)c(Cl)n2Cc1ccccc1`, the Kb in experiment [2] amounted to 0.85 µM. The ED50 in the experiment listed under Cavia porcellus stood at 9.37 µM.

On to `COc1ccc2c(c1)c(CC(=O)NN)c(C)n2Cc1cccc(O)c1`, for which the Kb in experiment [2] worked out at 5.96 µM. This compound registered an ED50 in the experiment listed under Cavia porcellus of more than 30 µM. In the case of `COc1ccc2c(C(=O)C(N)=O)c(C)n(Cc3ccccc3)c2c1`, half-maximal inhibition in experiment [1] (IC50) required 1.77 µM. Still for that read-out and setting: to `CCc1c(C(=O)C(N)=O)c2c([N+](=O)[O-])cccc2n1Cc1ccccc1` belongs 37.8 µM. `COc1ccc2c(c1)c(CC#N)c(C)n2Cc1ccccc1` gave an inhibition in experiment [3] of 45%. The Mole fraction result in experiment [4] was “Mole fraction as PLA2 IC50 concentration divided by total lipid concentration (1230 uM)”. Turning to `COc1ccc2c(c1)c(CC(N)=O)c(C)n2Cc1cccc(Cl)c1`, in experiment [1], the IC50 amounted to 0.91 µM.

Regarding `COc1ccc2c(c1)c(CC(=O)NN)c(C)n2Cc1cccc(-c2ccccc2)c1`, the Kb in experiment [2] worked out at 22.6 µM. On to `CCC(C(=O)NN)c1c(C)n(Cc2ccccc2)c2ccc(OC)cc12` (stereo unspecified), for which inhibition in experiment [1] was half-maximal at 24.2 µM (IC50). This counts as double-digit micromolar. In experiment [2], `COc1ccc2c(c1)c(CC(N)=O)c(SC)n2Cc1ccccc1` yielded a Kb of 7.93 µM. For the same compound, half-maximal inhibition in experiment [1] (IC50) required 0.45 µM. In turn, `CCc1c(C(=O)C(N)=O)c2cc(OC)ccc2n1Cc1ccccc1` showed a half-maximal inhibitory concentration (IC50) in experiment [1] of 2.56 µM. That is a single-digit micromolar value. `COc1cccc2c1c(CC(=O)NN)c(C)n2Cc1cccc(Cl)c1` came in with an IC50 in experiment [1] of 0.23 µM.

Compound `COc1ccc2c(c1)c(C(O)C(N)=O)c(C)n2Cc1ccccc1` (stereo unspecified) showed a 50% inhibitory concentration (IC50) in experiment [1] of 20.1 µM. This IC50 is about 87-fold higher than that of the compound before. Compound `CCCCCCCCCCn1c(C)c(CC(=O)NN)c2cc(OC)ccc21` displayed an IC50 in experiment [1] of 9.43 µM. Still for that read-out and setting: to `COc1cccc2c1c(CC(N)=O)c(C)n2Cc1cccc(Cl)c1` belongs 1.38 µM; to `COc1ccc2c(c1)c(CC(=O)NN)c(C)n2Cc1cccc(N)c1`, 4.32 µM.

`CCCc1c(CC(=O)NN)c2cc(OC)ccc2n1Cc1ccccc1`: the Kb in experiment [2] came out at 27.1 µM. Besides, the ED50 in the experiment filed under Cavia porcellus is more than 30 µM.

The compound `COc1ccc2c(c1)c(C(C)C(=O)NN)c(C)n2Cc1ccccc1` (stereo unspecified) had a concentration for half-maximal inhibition (IC50) in experiment [1] of 32.6 µM. `CONC(=O)Cc1c(C)n(Cc2ccccc2)c2ccc(OC)cc12` registered an IC50 in experiment [1] of 40 µM.

For the compound `CCc1c(CC(N)=O)c2cc(OC)ccc2n1Cc1ccccc1`, the Kb in experiment [2] amounted to 5.91 µM. The compound further yielded an ED50 in the experiment listed under Cavia porcellus of more than 30 µM.

The compound `COc1cccc2c1c(CC(=O)NN)c(C)n2Cc1ccccc1` yielded a concentration for half-maximal inhibition (IC50) in experiment [1] of 0.55 µM.
